Laboratory results from ChEMBL document CHEMBL3745631, “Discovery of highly potent and selective Bruton's tyrosine kinase inhibitors: Pyridazinone analogs with improved metabolic stability” (Bioorg Med Chem Lett, 2016).

How the values were obtained:
Blood = experiment: Inhibition of IgE-stimulated CD63 expression in human whole blood
Monocyte = experiment: Inhibition of IC-induced TNF-alpha release in human monocytes
Canis familiaris = experiment: Clearance in dog at 1 mg/kg, iv by LC-MS/MS analysis; assay type: ADME, organism-based, Canis lupus familiaris; conditions: in vivo
[1] = Oral bioavailability in dog at 5 mg/kg by LC-MS/MS analysis; assay type: ADME, organism-based, Canis lupus familiaris; conditions: in vivo
[2] = molecular target: Tyrosine-protein kinase Lyn (Homo sapiens) (UniProt P07948); experiment: Inhibition of LYN (unknown origin) at 1 uM
[3] = molecular target: Serine/threonine-protein kinase PAK 4 (Homo sapiens) (UniProt O96013); experiment: Inhibition of PAK4 (unknown origin) at 1 uM
[4] = tested on: Epidermal growth factor receptor (Homo sapiens), P00533 [L858R,T790M]; experiment: Inhibition of EGFR T790M,L858R mutant (unknown origin) at 1 uM; assay type: protein assay
[5] = molecular target: Fibroblast growth factor receptor 3 (Homo sapiens) (UniProt P22607); experiment: Inhibition of FGFR3 (unknown origin) at 1 uM
[6] = molecular target: 3-phosphoinositide-dependent protein kinase 1 (Homo sapiens) (UniProt O15530); experiment: Inhibition of PDK1 (unknown origin) at 1 uM by direct binding assay
3-phosphoinositide-dependent protein kinase 1 (Homo sapiens), sequence (O15530 whole entry): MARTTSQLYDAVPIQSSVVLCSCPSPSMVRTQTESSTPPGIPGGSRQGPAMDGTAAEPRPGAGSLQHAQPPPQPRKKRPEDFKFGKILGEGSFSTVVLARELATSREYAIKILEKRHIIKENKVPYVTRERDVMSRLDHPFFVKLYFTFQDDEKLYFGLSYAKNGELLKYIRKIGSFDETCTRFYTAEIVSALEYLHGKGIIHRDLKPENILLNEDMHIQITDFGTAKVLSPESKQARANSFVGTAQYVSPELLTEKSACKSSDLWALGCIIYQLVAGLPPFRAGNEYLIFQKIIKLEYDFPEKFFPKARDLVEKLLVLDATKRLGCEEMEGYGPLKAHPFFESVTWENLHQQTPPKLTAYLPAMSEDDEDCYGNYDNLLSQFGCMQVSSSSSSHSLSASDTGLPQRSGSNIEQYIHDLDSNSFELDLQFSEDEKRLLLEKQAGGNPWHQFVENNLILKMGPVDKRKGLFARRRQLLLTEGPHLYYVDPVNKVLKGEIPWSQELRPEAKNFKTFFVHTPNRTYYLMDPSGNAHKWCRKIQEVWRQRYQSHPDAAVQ

[7] = molecular target: cAMP-dependent protein kinase catalytic subunit PRKX (Homo sapiens) (UniProt P51817); experiment: Inhibition of PrKX (unknown origin) at 1 uM
[8] = molecular target: Tyrosine-protein kinase Tec (Homo sapiens, UniProt P42680); experiment: Inhibition of TEC (unknown origin)
[9] = molecular target: Dual specificity tyrosine-phosphorylation-regulated kinase 3 (Homo sapiens) (UniProt O43781); experiment: Inhibition of DYRK3 (unknown origin) at 1 uM
Dual specificity tyrosine-phosphorylation-regulated kinase 3 (Homo sapiens), sequence (O43781 whole entry): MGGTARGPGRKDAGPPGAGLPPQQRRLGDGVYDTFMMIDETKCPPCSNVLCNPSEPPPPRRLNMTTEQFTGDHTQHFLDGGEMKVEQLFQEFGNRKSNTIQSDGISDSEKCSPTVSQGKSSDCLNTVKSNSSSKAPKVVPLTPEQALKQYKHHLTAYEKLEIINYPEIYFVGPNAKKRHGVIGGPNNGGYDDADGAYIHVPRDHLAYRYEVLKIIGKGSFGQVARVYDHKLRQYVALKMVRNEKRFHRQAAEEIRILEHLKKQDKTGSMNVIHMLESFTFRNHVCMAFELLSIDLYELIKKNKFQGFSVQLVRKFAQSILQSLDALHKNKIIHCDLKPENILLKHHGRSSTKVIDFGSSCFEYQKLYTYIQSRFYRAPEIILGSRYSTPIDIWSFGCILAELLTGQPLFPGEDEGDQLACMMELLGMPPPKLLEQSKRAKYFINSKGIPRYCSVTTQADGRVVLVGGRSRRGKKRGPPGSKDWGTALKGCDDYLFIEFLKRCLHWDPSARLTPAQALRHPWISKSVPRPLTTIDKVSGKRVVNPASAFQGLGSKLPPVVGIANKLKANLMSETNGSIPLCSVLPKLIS

[10] = molecular target: Serine/threonine-protein kinase Chk2 (Homo sapiens) (UniProt O96017); experiment: Inhibition of CHK2 (unknown origin) at 1 uM
[11] = molecular target: Tyrosine-protein kinase Mer (Homo sapiens) (UniProt Q12866); experiment: Inhibition of Mer (unknown origin) at 1 uM
[12] = molecular target: Eukaryotic elongation factor 2 kinase (Homo sapiens) (UniProt O00418); experiment: Inhibition of eEF-2K (unknown origin) at 1 uM
Eukaryotic elongation factor 2 kinase (Homo sapiens), sequence (O00418 whole entry): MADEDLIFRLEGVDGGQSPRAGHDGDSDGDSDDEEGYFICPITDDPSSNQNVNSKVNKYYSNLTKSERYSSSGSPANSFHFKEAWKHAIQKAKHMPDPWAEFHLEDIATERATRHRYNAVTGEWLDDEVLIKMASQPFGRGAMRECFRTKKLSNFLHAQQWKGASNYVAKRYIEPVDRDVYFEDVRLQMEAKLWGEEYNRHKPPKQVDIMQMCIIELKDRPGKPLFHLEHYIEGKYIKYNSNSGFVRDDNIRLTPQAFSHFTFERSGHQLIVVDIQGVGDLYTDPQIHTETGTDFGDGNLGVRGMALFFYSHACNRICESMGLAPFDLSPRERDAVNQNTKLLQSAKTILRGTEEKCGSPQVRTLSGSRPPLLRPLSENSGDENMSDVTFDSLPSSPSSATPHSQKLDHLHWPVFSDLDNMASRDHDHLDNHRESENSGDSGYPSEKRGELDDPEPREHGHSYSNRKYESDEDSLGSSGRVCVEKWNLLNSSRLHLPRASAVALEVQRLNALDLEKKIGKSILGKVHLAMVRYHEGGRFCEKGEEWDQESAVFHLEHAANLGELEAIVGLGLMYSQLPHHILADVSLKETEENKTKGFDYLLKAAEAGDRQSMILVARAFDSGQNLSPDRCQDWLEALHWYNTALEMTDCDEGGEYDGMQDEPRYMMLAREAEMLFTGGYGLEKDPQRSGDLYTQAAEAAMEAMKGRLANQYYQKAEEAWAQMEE

[13] = molecular target: Calcium/calmodulin-dependent protein kinase type II subunit alpha (Homo sapiens) (UniProt Q9UQM7); experiment: Inhibition of CamK2 alpha (unknown origin) at 1 uM
Calcium/calmodulin-dependent protein kinase type II subunit alpha (Homo sapiens), sequence (Q9UQM7 whole entry): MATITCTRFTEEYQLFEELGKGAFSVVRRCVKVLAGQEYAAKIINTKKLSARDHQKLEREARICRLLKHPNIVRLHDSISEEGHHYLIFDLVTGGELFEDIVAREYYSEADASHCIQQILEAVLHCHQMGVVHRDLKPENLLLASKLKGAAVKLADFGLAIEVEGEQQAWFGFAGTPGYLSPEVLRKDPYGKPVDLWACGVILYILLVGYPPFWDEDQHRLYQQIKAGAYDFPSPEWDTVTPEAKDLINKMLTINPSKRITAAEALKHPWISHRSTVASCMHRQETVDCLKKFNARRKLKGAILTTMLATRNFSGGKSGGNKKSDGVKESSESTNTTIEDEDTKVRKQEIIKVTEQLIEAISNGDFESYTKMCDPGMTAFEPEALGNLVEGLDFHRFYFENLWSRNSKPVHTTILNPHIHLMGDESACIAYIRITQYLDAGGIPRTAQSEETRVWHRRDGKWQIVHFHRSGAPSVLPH

[14] = molecular target: Calcium/calmodulin-dependent protein kinase type IV (Homo sapiens) (UniProt Q16566); experiment: Inhibition of CamK4(unknown origin) at 1 uM
[15] = molecular target: Inhibitor of nuclear factor kappa-B kinase subunit beta (Homo sapiens) (UniProt O14920); experiment: Inhibition of IKKbeta (unknown origin) at 1 uM
[16] = molecular target: Mitogen-activated protein kinase 14 (Homo sapiens) (UniProt Q16539); experiment: Inhibition of p38alpha (unknown origin) at 1 uM
[17] = molecular target: SRSF protein kinase 1 (Homo sapiens) (UniProt Q96SB4); experiment: Inhibition of SRPK1 (unknown origin) at 1 uM
[18] = molecular target: Homeodomain-interacting protein kinase 1 (Homo sapiens) (UniProt Q86Z02); experiment: Inhibition of HIPK1 (unknown origin) at 1 uM
[19] = molecular target: Protein kinase C beta type (Homo sapiens) (UniProt P05771); experiment: Inhibition of PKC beta1 (unknown origin) at 1 uM
[20] = molecular target: RAC-beta serine/threonine-protein kinase (Homo sapiens) (UniProt P31751); experiment: Inhibition of AKT2 (unknown origin) at 1 uM
[21] = molecular target: Serine/threonine-protein kinase DCLK2 (Homo sapiens) (UniProt Q8N568); experiment: Inhibition of DCAMKL2 (unknown origin) at 1 uM
[22] = molecular target: Serine/threonine-protein kinase Sgk3 (Homo sapiens) (UniProt Q96BR1); experiment: Inhibition of SGK3 (unknown origin) at 1 uM
[23] = molecular target: Wee1-like protein kinase (Homo sapiens) (UniProt P30291); experiment: Inhibition of WEE1 (unknown origin) at 1 uM
[24] = molecular target: Ephrin type-A receptor 7 (Homo sapiens) (UniProt Q15375); experiment: Inhibition of EphA7 (unknown origin) at 1 uM
[25] = molecular target: Calcium/calmodulin-dependent protein kinase type II subunit beta (Homo sapiens) (UniProt Q13554); experiment: Inhibition of CaMK2 beta (unknown origin) at 1 uM
[26] = molecular target: Interleukin-1 receptor-associated kinase 1 (Homo sapiens) (UniProt P51617); experiment: Inhibition of IRAK1 (unknown origin) at 1 uM
[27] = molecular target: Activated CDC42 kinase 1 (Homo sapiens) (UniProt Q07912); experiment: Inhibition of TNK2 (unknown origin) at 1 uM
[28] = molecular target: Receptor-type tyrosine-protein kinase FLT3 (Homo sapiens) (UniProt P36888); experiment: Inhibition of Flt3 (unknown origin) at 1 uM
[29] = molecular target: Casein kinase I isoform epsilon (Homo sapiens) (UniProt P49674); experiment: Inhibition of CK1 epsilon1 (unknown origin) at 1 uM
[30] = molecular target: Serine/threonine-protein kinase 26 (Homo sapiens) (UniProt Q9P289); experiment: Inhibition of MST4 (unknown origin) at 1 uM
Serine/threonine-protein kinase 26 (Homo sapiens), sequence (Q9P289 2-416 limits assumed): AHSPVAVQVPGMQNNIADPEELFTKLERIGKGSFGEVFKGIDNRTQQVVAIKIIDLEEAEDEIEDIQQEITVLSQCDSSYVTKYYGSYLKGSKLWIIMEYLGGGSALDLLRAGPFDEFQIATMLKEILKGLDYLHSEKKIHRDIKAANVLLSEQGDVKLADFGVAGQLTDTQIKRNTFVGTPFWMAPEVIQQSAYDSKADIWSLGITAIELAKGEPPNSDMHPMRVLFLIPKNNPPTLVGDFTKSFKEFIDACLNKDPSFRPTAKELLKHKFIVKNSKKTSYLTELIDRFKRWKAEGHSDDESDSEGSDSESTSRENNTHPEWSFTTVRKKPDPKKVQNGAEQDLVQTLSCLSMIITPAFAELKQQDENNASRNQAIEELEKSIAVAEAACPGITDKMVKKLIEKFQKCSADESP

[31] = molecular target: Homeodomain-interacting protein kinase 4 (Homo sapiens) (UniProt Q8NE63); experiment: Inhibition of HIPK4 (unknown origin) at 1 uM
Homeodomain-interacting protein kinase 4 (Homo sapiens), sequence (Q8NE63 whole entry): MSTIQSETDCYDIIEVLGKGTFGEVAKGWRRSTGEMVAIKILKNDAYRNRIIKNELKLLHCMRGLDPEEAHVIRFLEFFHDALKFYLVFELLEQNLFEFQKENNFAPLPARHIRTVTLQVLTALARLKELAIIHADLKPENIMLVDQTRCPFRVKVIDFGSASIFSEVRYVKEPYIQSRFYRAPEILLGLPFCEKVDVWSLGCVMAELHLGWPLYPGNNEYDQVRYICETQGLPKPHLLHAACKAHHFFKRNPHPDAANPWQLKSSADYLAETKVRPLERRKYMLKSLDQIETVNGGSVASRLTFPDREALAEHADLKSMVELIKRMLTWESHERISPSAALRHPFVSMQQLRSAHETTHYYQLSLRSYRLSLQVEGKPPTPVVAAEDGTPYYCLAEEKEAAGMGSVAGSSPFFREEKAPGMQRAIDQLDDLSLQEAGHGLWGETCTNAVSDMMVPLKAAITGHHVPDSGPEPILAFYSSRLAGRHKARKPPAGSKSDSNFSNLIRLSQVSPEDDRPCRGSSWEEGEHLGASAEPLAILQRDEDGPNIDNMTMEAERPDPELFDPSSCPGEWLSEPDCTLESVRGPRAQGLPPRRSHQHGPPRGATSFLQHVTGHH

[32] = molecular target: Dual specificity protein kinase TTK (Homo sapiens) (UniProt P33981); experiment: Inhibition of TTK (unknown origin) at 1 uM
Dual specificity protein kinase TTK (Homo sapiens), sequence (P33981 whole entry): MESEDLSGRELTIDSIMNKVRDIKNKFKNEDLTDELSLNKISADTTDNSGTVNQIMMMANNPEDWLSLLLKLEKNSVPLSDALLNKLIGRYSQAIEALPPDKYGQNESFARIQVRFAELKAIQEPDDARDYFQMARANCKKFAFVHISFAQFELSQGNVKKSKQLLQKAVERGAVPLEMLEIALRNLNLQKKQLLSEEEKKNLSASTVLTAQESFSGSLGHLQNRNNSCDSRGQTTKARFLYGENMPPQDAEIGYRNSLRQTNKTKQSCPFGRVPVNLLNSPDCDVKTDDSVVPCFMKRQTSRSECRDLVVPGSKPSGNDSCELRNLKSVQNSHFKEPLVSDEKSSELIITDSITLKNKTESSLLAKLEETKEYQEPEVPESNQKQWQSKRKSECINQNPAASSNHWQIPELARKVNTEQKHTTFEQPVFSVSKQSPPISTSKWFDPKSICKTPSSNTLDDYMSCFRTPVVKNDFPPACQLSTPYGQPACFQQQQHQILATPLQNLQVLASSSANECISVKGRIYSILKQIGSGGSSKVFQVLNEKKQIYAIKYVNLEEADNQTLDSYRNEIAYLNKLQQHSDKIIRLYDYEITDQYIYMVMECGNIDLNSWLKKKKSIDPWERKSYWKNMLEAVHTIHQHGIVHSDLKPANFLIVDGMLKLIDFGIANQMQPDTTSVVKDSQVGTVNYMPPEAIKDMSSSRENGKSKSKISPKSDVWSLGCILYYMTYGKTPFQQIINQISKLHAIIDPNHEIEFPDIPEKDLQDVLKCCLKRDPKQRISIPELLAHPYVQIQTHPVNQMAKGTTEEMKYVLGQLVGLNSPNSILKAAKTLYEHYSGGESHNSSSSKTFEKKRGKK

[33] = molecular target: MAP kinase-activated protein kinase 3 (Homo sapiens) (UniProt Q16644); experiment: Inhibition of MAPKAPK3 (unknown origin) at 1 uM
[34] = molecular target: Activin receptor type-2B (Homo sapiens) (UniProt Q13705); experiment: Inhibition of ACVR2B (unknown origin) at 1 uM
Activin receptor type-2B (Homo sapiens), sequence (Q13705 whole entry): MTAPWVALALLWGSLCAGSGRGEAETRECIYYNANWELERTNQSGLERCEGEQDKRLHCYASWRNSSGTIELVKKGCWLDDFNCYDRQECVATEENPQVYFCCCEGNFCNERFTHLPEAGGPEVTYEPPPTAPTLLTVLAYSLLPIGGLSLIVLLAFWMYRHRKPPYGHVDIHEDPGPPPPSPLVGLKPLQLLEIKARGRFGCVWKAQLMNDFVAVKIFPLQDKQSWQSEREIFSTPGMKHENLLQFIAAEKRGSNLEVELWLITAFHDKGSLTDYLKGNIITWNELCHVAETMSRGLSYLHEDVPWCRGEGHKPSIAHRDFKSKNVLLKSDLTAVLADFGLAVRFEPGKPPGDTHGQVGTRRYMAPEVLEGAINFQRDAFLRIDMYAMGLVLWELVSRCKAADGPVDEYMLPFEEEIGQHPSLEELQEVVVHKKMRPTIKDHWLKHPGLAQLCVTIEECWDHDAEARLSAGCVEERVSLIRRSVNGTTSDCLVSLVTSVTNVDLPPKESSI

[35] = molecular target: Serine/threonine-protein kinase 4 (Homo sapiens) (UniProt Q13043); experiment: Inhibition of MST1 (unknown origin) at 1 uM
[36] = molecular target: Ephrin type-A receptor 3 (Homo sapiens) (UniProt P29320); experiment: Inhibition of EphA3 (unknown origin) at 1 uM
[37] = molecular target: Bone morphogenetic protein receptor type-1A (Homo sapiens) (UniProt P36894); experiment: Inhibition of BMPR1A (unknown origin) at 1 uM
[38] = molecular target: Tyrosine-protein kinase TXK (Homo sapiens) (UniProt P42681); experiment: Inhibition of TXK (unknown origin) at 1 uM
[39] = molecular target: MAP/microtubule affinity-regulating kinase 3 (Homo sapiens) (UniProt P27448); experiment: Inhibition of MARK3 (unknown origin) at 1 uM
[40] = molecular target: LIM domain kinase 1 (Homo sapiens) (UniProt P53667); experiment: Inhibition of LIMK1 (unknown origin) at 1 uM
[41] = molecular target: Protein-tyrosine kinase 6 (Homo sapiens) (UniProt Q13882); experiment: Inhibition of Brk (unknown origin) at 1 uM
[42] = molecular target: SRSF protein kinase 3 (Homo sapiens) (UniProt Q9UPE1); experiment: Inhibition of MSSK1 (unknown origin) at 1 uM

Cc1c(-c2cc(Nc3cc4n(n3)CCN(C)C4)c(=O)[nH]n2)ccc(F)c1NC(=O)c1cc2ccccc2s1
EC50 (Blood): 0.257 µM
EC50 (Monocyte): 0.037 µM
clearance (Canis familiaris): 0.84 L/h/kg
bioavailability [1]: 65%
inhibition [2]: 23.1%
inhibition [3]: 6.2%
inhibition [4]: 6.1%
inhibition [5]: 1.8%
inhibition [6]: -8%
inhibition [7]: -9.9%
IC50 [8]: 0.23 µM
inhibition [9]: 3.3%
inhibition [10]: -3.8%
inhibition [11]: 3%
inhibition [12]: 3%
inhibition [13]: 2.8%
inhibition [14]: 2.4%
inhibition [15]: 2.2%
inhibition [16]: 1%
inhibition [17]: 0.6%
inhibition [18]: 0.4%
inhibition [19]: 0.2%
inhibition [20]: -0.3%
inhibition [21]: -1.2%
inhibition [22]: -1.3%
inhibition [23]: -1.8%
inhibition [24]: -2%
inhibition [25]: -2.2%
inhibition [26]: -2.2%
inhibition [27]: 15.9%
inhibition [28]: 11.6%
inhibition [29]: 8.6%
inhibition [30]: 8.6%
inhibition [31]: 7.8%
inhibition [32]: 7.2%
inhibition [33]: 6.9%
inhibition [34]: 4.5%
inhibition [35]: -2.6%
inhibition [36]: -3.9%
inhibition [37]: -4.5%
inhibition [38]: -4.7%
inhibition [39]: -5.4%
inhibition [40]: -5.5%
inhibition [41]: 3.5%
inhibition [42]: 3.4%
